Laboratory results taken from US8673851B2, “Synapse-specific proteins in glomeruli” (priority 2005, dated 2014).
Where a name gives a salt, the structure may show the parent alone.

Experiments:
[1] = test system: cell membranes; conditions: higher concentrations (>10 nM); cited from earlier work
[2] = test system: cultured mouse podocytes; test: α-latrotoxin-stimulated glutamate release (enzymatic GDH/NADH assay); type: cell-based
Procedure: α-Latrotoxin stimulated glutamate release was detected by an enzymatic assay based on the following reaction that occurs in presence of glutamate dehydrogenase (GDH): Glutamate−+NAD++H20 ketoglutarate2−+NADH+[…]H+.
Briefly, to this purpose, the same numbers of podocytes obtained from normal mouse glomeruli were plated and grown to semiconfluence. Before measurements, cells were washed and re-suspended for 1 hour at 37° C. in DME incubation buffer (NaCl 109.5 mM, KCl 5.3 mM, glucose 5.5 mM with MgCl2 1 mM, Hepes 20 mM). The medium was further supplemented with GDH (Sigma 60 U/ml) and NAD+ (Sigma 1 mM), and incubated for 5 min. Then, α-latrotoxin was added at subnanomolar (0.5 nM) or nanomolar (2.5 nM) concentration and spectrophotometric increase of optical density (O.D.) due to increase of NADH was monitored at 340 nm. 200 nM Bafilomycin A1 (Sigma), a V-ATPase inhibitor that dissipates the electrochemical proton gradient necessary for glutamate uptake and storage into vescicles43, was added for 30 min at 37° C. to control cell plates before α-latrotoxin stimulation.

[3] = test system: primary podocytes; test: Synaptic vesicle recycling with styryl dye FM1-43; type: cell-based
Description: The recycling of synaptic vesicles in nerve terminals is a complex multistep process, whose investigation has been made feasible by the use of styryl dyes. These molecules, that reversibly insert into the surface of lipid membranes, have no fluorescent properties in aqueous solution, but become intensely fluorescent upon membrane binding, allowing a labelling of recycling synaptic vesicles that is easily detectable by fluorescence microscopy.

[4] = test system: podocytes; type: cell-based; conditions: for Calcium content (Fluo4) / Intra-vesicle pH (Lysosensor green) / Membrane potential (RH-414 accumulation and discharge): during stimulated exocytosis
[5] = test system: cultured podocytes; test: Rab3A and glutamate staining of cultured podocytes before and after α-latrotoxin stimulus; type: cell-based, mouse; conditions: after nanomolar α-latrotoxin treatment
Description: Panel b)-e): Rab3A (b, d) and glutamate (c, e) staining of cultured podocytes before (b, c) and after (d, e) nanomolar α-latrotoxin stimulus. Disappearance of most labeling from the processes of podocytes is evident after stimulation (indirect immunofluorescence, 450×).

[6] = test system: podocytes; test: [3H]-L-glutamate uptake; type: cell-based, mouse
Procedure: Podocytes were seeded at a density of 15,000 cells/well in 48-well plates, Two days later the culture medium was removed, the adherent washed two times with 0.5 mL/well of assay buffer (10 mM Tris-acetate, 128 mM NaCl, 10 mM D-glucose, 5 mM KCl, 1.5 mM NaH2PO4, 1 mM MgSO4, 1 mM CaCl2, pH 7.4) and then incubated for 15 min at 35° C. in assay buffer (0.3 mL/well) containing 100 nM [3H]-L-glutamate (Amersham, specific activity 47.0 Ci/mmol) with or without different concentrations of cold L-glutamate (from 1 to 1000 μM). Non-specific uptake was determined in parallel samples incubated in a Na+-free buffer (NaCl replaced by cholineCl). […]
In preliminary experiments it was established that the uptake of [3H]-Lglutamate was linear at least up to 15 min (not shown). Cells were then added with 0.3 mL/well of SDS and, after 2 hours on shaking plate, the well content was counted in 4 mL of Ultima Gold MV (Packard Bioscience, Groningen, the Netherlands) in an LKB 1214 Rackbeta liquid scintillation counter with a counting efficiency of about 60%.
Km and Vmax of L-glutamate uptake were determined by fitting the inhibition curve using the “homologous competitive binding curve” equation built into GrapPad Prism version 4.00 for Windows (GraphPad Software, San Diego Calif. USA). […]

[7] = test system: primary mouse podocytes; test: Phalloidin staining of the actin cytoskeleton; type: cell-based; conditions: 24 h, 50 mM norketamine hydrochloride
Procedure: A Phalloidin staining of primary mouse podocytes after 24 h medium incubation. The actin cytoskeleton is intact. Rhodamine-phalloidin, 100×)
B Phalloidin staining of primary mouse podocytes after 24 h 50 mM norketamine hydrochloride incubation. […] (Rhodamine-phalloidin, 100×)
By immunohistochemistry, we have observed a variation of positivity, either increased or decreased, for other synaptic proteins, such as synapsin 1 (antibody from Abeam), and the ionotropic glutamate receptor NMDA-1 in a variety of human glomerulonephritis (FIG. 12).

[8] = test system: primary podocyte; test: BDNF incubation, process formation (bright-field); type: cell-based; conditions: 250 ng/ml, 20 hour incubation
Procedure: FIG. 18 • A) Bright-field image (200×) showing the in vivo appearance of a primary podocyte before BDNF treatment. • B) The same field is taken after 20 h of BDNF incubation. The cell has produced a number of processes starting from its body.
We have also observed that podocytes are sensitive to 250 ng/ml BDNF (Brain Derived Neurotrophic Factor) (Sigma): after 20 hour incubation with BDNF, in fact, the number of processes extending from the podocyte cell body are increased (FIG. 18).

α-latrotoxin
Damage to cell membranes [1]: highly damaging for cell membranes | Glutamate secretion (generation of NADH, optical density at 340 nm) ([2]; 0.5 nM α-latrotoxin): continuous exocytosis | Glutamate secretion (generation of NADH, optical density at 340 nm) ([2]; 2.5 nM α-latrotoxin): burst of neurotransmitter release, followed by steady state | FM1-43 dye uptake ([3]; a few seconds after a first α-latrotoxin stimulus): accumulate the styryl dye FM1-43 | FM1-43 dye release ([3]; after a second α-latrotoxin stimulation): almost completely discharge the dye | Calcium content (Fluo4) [4]: rapid variation in calcium content | Intra-vesicle pH (Lysosensor green) [4]: variation of intra-vesicle pH | Membrane potential (RH-414 accumulation and discharge) [4]: rapid variation of the membrane potential | Glutamate labeling of cell processes by immunohistochemistry [5]: disappearance of most glutamate from cell processes | Rab3A distribution by immunohistochemistry [5]: redistribution of Rab3A

[Cl-].[K+] [KCl]
Induction of stimulated exocytosis ([4]; 60 mM): can be induced | Calcium content (Fluo4) [4]: rapid variation in calcium content | Intra-vesicle pH (Lysosensor green) [4]: variation of intra-vesicle pH | Membrane potential (RH-414 accumulation and discharge) [4]: rapid variation of the membrane potential

tetanus toxin
Block of exocytotic events [4]: can be blocked

N[C@@H](CCC(=O)O)C(=O)O [L-glutamate]
Km ([6]; Na+-dependent uptake, 100 nM [3H]-L-glutamate, 15 min at 35° C.): 83 µM | Vmax of L-glutamate uptake ([6]; estimated, 15,000 cells/well seeded): about 2 pmol/min/well

CO/C1=C\C(C)=C\[C@@H](C)[C@@H](O)[C@@H](C)C/C(C)=C/C=C/[C@H](OC)[C@@H]([C@@H](C)[C@@H](O)[C@H](C)[C@@]2(O)C[C@@H](O)[C@H](C)[C@@H](C(C)C)O2)OC1=O [bafilomycin, Bafilomycin A1]
Glutamate release after α-latrotoxin ([2]; bafilomycin added 30 min before latrotoxin (0.5 nM or 2.5 nM α-latrotoxin), 200 nM Bafilomycin A1): Absence of glutamate release

NC1(c2ccccc2Cl)CCCCC1=O (centres unmarked) [norketamine hydrochloride]
Actin cytoskeleton (rhodamine-phalloidin) [7]: profound alteration of the actin cytoskeleton

B1: BDNF: Brain Derived Neurotrophic Factor (Sigma) (protein, UniProt P23560 19-247, looked up)
Neurotrophic factor BDNF …: APMKEANIRGQGGLAYPGVRTHGTLESVNGPKAGSRGLTSLADTFEHVIEELLDEDQKVRPNEENNKDADLYTSRVMLSSQVPLEPPLLFLLEEYKNYLDAANMSMRVRRHSDPARRGELSVCDSISEWVTAADKKTAVDMSGGTVTVLEKVPVSKGQLKQYFYETKCNPMGYTKEGCRGIDKRHWNSQCRTTQSYVRALTMDSKKRIGWRFIRIDTSCVCTLTIKRGR
Number of processes extending from the podocyte cell body [8]: increased
